Earlier results as cited in US20020010164A1, “Low oxygen content compositions of 1alpha, 25-dihydroxycholecalciferol” (priority 1999, published 2002).

For `C=C1/C(=C\C=C2/CCCC3(C)C2CCC3C(C)CCCC(C)(C)O)CC(O)CC1O` (stereo not drawn) [1α, 25-dihydroxycholecalciferol], the “solubility in organic solvents” value (organic solvents) is given as “soluble” and the solubility in water (water) is given as “practically insoluble”.
